Where two headings read alike, the source gives them in different places.
Target: Rv1086 (Mycobacterium tuberculosis, UniProt P9WFF5)
Format: biochemical
Settings: 5 mM MgCl2, pH 7.0, 37 °C

Sequence of Rv1086 (P9WFF5 whole entry): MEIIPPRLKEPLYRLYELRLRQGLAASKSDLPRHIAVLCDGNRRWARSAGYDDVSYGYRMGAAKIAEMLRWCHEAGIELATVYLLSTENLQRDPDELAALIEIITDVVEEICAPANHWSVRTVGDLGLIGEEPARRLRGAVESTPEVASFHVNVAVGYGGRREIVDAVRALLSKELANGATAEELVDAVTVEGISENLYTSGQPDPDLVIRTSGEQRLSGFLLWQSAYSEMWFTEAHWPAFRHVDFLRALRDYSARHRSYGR

| Structure (SMILES) | GC-MS of dephosphorylated product (100 μM GPP, co-substrate IPP) | GC-MS of dephosphorylated product (100 μM DMAPP, 100 μM IPP, 0.3% Triton X-100) |
| --- | --- | --- |
| CC(C)=CCC/C(C)=C/COP(=O)(O)OP(=O)(O)O [GPP] | Rv1086 assayed in the presence of authentic GPP, GPP synthesized by Rv0989c, or DMAPP |  |
| CC(C)=CCOP(=O)(O)OP(=O)(O)O [DMAPP] |  | (Z,E)-FPP also was produced by Rv1086 from IPP and DMAPP in the absence of Rv0989 |

From PMC3048469 (FEBS letters, 2011)
